Tested on: MuRF1
Assay: Expression of MuRF1 in dexamethasone-induced muscle atrophy rats
Assay type: in vivo, SD rats
Details: versus increase induced by dexamethasone; MIX 100 mg/kg, PC 320 mg/kg oral; FIG. 7
Text: In the process of treating muscle atrophy, the effects of the composite (extracts) of leaves of mulberry and Angelica keiskei on the expression of MyoD (a factor involved in muscle production) and on the expression of MuRF1 (a factor related to muscle atrophy) were confirmed.

## CC(C)(O)CC(=O)O [PC, 3-hydroxy-3-methylbutyric acid]
  expression of MuRF1: tended to decrease

Reference: US20250064877A1, “COMPOSITION FOR INCREASING MUSCLE STRENGTH CONTAINING COMPLEX EXTRACT OF ANGELICA KEISKEI AND LEAVES OF MORUS ALBA L” (HAMSOA PHARMACEUTICAL CO., LTD., priority 2022, published 2025)
